Results taken from paper PMC10482691, “LTP induction by structural rather than enzymatic functions of CaMKII” (Nature, 2023).
Values joined by “and” are separate entries in the source; they are usually repeats but may differ in a detail not shown here. Equal entries are not always repeated.

Key:
CaMKIIβ(h) = CaMKIIβ(h) (Homo sapiens, UniProt Q13554); test: Kinase selectivity panel (residual activity at 1 μM); type: biochemical; conditions: inhibitor at 1 μM; read-out: residual kinase activity in % of maximal activity
Chain of CaMKIIβ(h) (Q13554 whole entry): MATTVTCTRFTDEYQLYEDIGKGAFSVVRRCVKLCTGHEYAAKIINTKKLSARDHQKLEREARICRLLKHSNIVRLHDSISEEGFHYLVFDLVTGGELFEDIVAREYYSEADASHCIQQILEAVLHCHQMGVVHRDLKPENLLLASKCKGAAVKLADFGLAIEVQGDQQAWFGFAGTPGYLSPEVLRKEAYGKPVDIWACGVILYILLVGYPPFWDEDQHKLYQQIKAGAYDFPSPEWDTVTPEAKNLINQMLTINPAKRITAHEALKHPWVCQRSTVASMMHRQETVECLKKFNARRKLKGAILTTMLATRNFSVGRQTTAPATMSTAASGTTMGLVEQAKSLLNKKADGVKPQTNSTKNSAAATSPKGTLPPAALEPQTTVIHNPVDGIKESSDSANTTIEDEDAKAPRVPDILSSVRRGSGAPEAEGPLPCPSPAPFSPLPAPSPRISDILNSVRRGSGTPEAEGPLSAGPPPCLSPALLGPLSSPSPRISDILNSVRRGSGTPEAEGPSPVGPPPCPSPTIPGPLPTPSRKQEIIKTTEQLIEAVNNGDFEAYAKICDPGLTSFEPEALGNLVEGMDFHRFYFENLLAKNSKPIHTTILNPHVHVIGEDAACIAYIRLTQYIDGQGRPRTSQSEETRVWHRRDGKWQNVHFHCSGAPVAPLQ

CaMKIIδ(h) = CaMKIIδ(h) (Homo sapiens, UniProt Q13557); test: as above; type: biochemical; conditions: inhibitor at 1 μM; read-out: residual kinase activity in % of maximal activity
Chain of CaMKIIδ(h) (Q13557 whole entry): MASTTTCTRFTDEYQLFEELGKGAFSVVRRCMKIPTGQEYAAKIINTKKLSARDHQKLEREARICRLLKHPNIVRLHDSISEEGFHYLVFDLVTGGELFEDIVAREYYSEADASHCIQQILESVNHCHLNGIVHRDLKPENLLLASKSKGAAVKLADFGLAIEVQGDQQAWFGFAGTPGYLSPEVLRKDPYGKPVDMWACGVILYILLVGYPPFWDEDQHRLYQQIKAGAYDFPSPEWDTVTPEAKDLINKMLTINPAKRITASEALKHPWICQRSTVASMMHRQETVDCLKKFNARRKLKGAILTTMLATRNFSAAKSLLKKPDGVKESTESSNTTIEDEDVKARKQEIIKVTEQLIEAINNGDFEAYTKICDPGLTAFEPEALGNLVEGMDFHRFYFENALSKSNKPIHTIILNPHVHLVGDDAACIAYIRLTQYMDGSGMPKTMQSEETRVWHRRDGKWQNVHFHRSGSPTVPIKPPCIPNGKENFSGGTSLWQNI

FGFR1(h) = FGFR1(h) (Homo sapiens, UniProt P11362); test: as above; type: biochemical; conditions: inhibitor at 1 μM; read-out: residual kinase activity in % of maximal activity
Chain of FGFR1(h) (P11362 22-822): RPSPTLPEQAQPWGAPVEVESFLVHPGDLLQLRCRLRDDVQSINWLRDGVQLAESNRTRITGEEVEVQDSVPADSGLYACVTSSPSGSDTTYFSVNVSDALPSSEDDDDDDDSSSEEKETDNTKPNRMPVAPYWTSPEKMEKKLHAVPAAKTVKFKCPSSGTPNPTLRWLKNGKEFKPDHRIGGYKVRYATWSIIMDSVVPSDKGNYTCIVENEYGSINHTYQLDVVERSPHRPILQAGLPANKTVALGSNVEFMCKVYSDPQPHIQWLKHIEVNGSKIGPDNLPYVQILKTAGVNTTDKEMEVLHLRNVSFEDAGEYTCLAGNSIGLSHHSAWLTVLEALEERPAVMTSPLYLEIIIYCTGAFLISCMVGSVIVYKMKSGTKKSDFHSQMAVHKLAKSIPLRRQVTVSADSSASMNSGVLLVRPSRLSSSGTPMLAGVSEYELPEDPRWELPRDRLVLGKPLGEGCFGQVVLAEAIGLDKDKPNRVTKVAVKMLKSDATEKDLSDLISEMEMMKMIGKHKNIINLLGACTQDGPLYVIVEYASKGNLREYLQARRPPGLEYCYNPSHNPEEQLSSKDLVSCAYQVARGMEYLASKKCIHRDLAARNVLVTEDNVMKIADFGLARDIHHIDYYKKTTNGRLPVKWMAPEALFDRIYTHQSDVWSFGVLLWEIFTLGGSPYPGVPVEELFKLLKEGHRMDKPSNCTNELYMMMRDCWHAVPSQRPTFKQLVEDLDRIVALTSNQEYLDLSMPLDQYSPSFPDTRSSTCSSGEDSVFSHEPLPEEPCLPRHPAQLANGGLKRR

IGF-1R(h) = IGF-1R(h) (Homo sapiens, UniProt P08069); test: as above; type: biochemical; conditions: inhibitor at 1 μM; read-out: residual kinase activity in % of maximal activity
Chain of IGF-1R(h) (P08069 31-1367): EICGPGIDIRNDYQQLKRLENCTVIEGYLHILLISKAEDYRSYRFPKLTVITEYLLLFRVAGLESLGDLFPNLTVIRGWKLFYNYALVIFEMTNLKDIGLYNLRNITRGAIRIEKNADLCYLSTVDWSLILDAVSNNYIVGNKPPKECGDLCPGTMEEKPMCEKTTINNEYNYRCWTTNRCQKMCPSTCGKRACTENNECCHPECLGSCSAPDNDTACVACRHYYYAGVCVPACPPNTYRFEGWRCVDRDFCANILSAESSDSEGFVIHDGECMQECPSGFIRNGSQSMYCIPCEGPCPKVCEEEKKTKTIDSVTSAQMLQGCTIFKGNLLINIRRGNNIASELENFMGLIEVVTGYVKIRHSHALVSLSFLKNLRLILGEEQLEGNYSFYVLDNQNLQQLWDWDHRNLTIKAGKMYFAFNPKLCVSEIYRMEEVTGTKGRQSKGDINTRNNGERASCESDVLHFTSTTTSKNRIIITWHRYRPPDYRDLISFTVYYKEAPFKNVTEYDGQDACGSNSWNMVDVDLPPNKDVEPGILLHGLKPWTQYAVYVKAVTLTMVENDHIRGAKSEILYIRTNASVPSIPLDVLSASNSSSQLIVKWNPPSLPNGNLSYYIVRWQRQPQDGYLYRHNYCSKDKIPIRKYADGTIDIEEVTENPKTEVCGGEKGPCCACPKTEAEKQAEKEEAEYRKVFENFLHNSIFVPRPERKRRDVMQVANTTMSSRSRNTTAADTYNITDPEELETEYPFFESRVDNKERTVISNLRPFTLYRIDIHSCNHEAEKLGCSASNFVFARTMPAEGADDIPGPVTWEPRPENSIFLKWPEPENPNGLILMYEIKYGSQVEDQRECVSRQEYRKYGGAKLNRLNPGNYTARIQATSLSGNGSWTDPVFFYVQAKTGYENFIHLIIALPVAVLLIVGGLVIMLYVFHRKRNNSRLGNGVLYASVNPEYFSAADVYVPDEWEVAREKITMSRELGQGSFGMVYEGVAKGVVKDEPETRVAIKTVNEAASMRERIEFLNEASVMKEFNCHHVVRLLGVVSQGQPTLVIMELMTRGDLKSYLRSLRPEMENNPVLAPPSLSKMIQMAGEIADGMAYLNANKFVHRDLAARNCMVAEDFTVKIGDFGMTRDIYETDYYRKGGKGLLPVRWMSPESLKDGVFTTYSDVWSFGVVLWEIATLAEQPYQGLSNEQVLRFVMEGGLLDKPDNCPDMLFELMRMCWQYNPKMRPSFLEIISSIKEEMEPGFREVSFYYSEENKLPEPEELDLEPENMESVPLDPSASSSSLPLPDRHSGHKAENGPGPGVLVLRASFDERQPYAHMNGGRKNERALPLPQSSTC

MEK1(h) = MEK1(h) (Homo sapiens, UniProt Q02750); test: as above; type: biochemical; conditions: inhibitor at 1 μM; read-out: residual kinase activity in % of maximal activity
Chain of MEK1(h) (Q02750 whole entry): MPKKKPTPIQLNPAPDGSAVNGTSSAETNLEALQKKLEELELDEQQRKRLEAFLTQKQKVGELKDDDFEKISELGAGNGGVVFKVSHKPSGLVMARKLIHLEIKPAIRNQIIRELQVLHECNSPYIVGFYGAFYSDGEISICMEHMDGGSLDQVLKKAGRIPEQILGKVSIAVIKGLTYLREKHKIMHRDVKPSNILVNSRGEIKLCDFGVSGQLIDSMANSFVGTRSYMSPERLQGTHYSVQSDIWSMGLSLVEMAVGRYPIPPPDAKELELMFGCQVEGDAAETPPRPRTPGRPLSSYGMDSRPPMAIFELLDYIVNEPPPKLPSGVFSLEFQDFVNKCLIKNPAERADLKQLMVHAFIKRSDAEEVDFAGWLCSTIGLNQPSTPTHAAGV

PDK1(h) = PDK1(h) (Homo sapiens, UniProt O15530); test: as above; type: biochemical; conditions: inhibitor at 1 μM; read-out: residual kinase activity in % of maximal activity
PKG1β(h) = PKG1β(h) (Homo sapiens, UniProt Q13976); test: as above; type: biochemical; conditions: inhibitor at 1 μM; read-out: residual kinase activity in % of maximal activity
Chain of PKG1β(h) (Q13976 1-686 isoform Q13976-2): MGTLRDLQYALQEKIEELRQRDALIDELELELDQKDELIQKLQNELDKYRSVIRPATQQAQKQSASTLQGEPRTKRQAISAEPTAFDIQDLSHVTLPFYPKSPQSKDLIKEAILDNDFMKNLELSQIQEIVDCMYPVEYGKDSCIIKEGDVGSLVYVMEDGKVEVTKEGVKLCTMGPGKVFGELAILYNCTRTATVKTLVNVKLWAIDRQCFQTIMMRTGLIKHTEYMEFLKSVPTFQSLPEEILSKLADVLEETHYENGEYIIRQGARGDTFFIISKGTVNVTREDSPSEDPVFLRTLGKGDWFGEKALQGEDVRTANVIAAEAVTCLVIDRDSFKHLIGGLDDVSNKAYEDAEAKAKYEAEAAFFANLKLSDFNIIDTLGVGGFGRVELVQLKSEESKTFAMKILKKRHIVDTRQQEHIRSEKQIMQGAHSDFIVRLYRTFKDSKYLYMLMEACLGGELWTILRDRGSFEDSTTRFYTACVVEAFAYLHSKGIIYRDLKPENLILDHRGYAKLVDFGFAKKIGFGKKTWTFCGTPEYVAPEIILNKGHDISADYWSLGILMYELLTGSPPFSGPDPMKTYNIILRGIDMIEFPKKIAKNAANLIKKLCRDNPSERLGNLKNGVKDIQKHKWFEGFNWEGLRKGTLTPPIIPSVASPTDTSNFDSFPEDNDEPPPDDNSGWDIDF

ROCK-II(h) = ROCK-II(h) (Homo sapiens, UniProt O75116); test: as above; type: biochemical; conditions: inhibitor at 1 μM; read-out: residual kinase activity in % of maximal activity
SAPK2a(h) = SAPK2a(h) (Homo sapiens, UniProt Q16539); test: as above; type: biochemical; conditions: inhibitor at 1 μM
Chain of SAPK2a(h) (Q16539 whole entry): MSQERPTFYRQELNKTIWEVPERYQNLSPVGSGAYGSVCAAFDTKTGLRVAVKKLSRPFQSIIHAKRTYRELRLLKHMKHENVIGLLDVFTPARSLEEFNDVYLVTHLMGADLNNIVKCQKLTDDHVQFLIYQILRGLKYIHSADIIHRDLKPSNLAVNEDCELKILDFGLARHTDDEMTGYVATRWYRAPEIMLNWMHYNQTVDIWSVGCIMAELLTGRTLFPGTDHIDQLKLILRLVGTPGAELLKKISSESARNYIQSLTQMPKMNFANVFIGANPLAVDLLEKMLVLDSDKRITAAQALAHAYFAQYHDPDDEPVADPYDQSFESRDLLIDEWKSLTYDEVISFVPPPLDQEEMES

[1] = system: GFP–CaMKII K42M in rat hippocampal neurons; test: cLTP-induced CaMKII synaptic enrichment in dissociated hippocampal cultures (GFP–CaMKII K42M); type: cell-based; conditions: sheet 4e
[2] = system: GFP–paCaMKII F89G in hippocampal neurons; test: paCaMKII F89G photoactivation: synaptic enrichment in hippocampal neurons; type: cell-based
Protocol: Neurons were wrapped in aluminium foil immediately following transfection and only exposed to red light in imaging. One image was then taken of each neuron to serve as a pre-photoactivation baseline. Immediately following this baseline image, paCaMKII was globally photoactivated with a 405 nm laser pulse (100 ms exposure, 75% laser power) once every 10 s for a total of 60 s. Neurons were then imaged 15 min after stimulation and assessed for CaMKII synaptic enrichment and dendritic spine growth.
Neuronal cultures were transfected on DIV 15–18 and imaged 24–48 h later. […] Two-dimensional maximum-intensity projection images were then generated and analysed using a custom-build programme in ImageJ. The programme utilizes combinatorial thresholding to mask regions of the cell that contain high-intensity puncta of postsynaptic density protein 95 (PSD95; a marker of the post-synaptic side of excitatory synapses in dendritic spines) and regions of the dendritic shaft that contain no fluorescence intensity of PSD95. As a measure of synaptic enrichment, the ratio of mean CaMKII fluorescence intensity of the PSD95 mask to the mean CaMKII fluorescence intensity in the dendritic shaft mask is measured. Spine growth was assessed by measuring the changes in mCherry cell fill fluorescence intensity within dendritic spine divided by the initial fluorescence intensity (F/F0).

**Q.** `NCCNc1cccc(-c2ccnc3[nH]c4ccccc4c23)c1` [AS283] was tested. Which remaining activity at 1 µM (CaMKIIβ(h)) did it give?
**A.** 5%

**Q.** And the remaining activity at 1 µM (CaMKIIδ(h))?
**A.** 2%

**Q.** And the remaining activity at 1 µM (FGFR1(h))?
**A.** 58%

**Q.** And the remaining activity at 1 µM (IGF-1R(h))?
**A.** 110%

**Q.** What about the remaining activity at 1 µM (MEK1(h)) of the same compound?
**A.** 85%

**Q.** And the remaining activity at 1 µM (PDK1(h))?
**A.** 78%

**Q.** What about the remaining activity at 1 µM (PKG1β(h)) of the same compound?
**A.** 38%

**Q.** And the remaining activity at 1 µM (ROCK-II(h))?
**A.** 77%

**Q.** And the “residual kinase activity in % of maximal activity” value (SAPK2a(h))?
**A.** 95%

**Q.** Which CaMKII synaptic enrichment ([1]; NMPP1, before cLTP, individual neurons) does the source give for `CC(C)(C)n1nc(Cc2cccc3ccccc23)c2c(N)ncnc21` [NM-PP1] here?
**A.** 1.065 and 0.7915 and 0.7418 and 0.4255 and 0.8744 and 0.8871

**Q.** And the CaMKII synaptic enrichment ([1]; after cLTP in NMPP1, individual neurons)?
**A.** 1.554 and 1.155 and 0.8796 and 0.5587 and 1.358 and 1.0618

**Q.** And the “CaMKII movement after photoactivation of paCaMKII F89G” value ([2]; NM-PP1 10 μM)?
**A.** enabled similar movement

**Q.** And the “synaptic enrichment after photoactivation (sheet 6e)” value ([2]; paCaMKII F89G + NM-PP1, individual neurons)?
**A.** 1.231 and 1.446 and 1.136 and 1.385 and 1.127 and 1.67 and 1.6203 and 1.284 and 0.7763 and 1.224 and 1.168 and 1.296 and 1.013 and 0.919 and 1.131 and 1.135 and 1.776
